# Reference: patent US8119589B2, “Modulation of CD4+ T cell responses by a tick saliva protein, Salp15 and polypeptides derived therefrom” (University of North Carolina at Charlotte, priority 2004, dated 2012)
# Experiments:
# CD4 on HeLa-CD4 cells = molecular target: T1, CD4 on HeLa-CD4 cells (Homo sapiens, UniProt P01730); assay: Competition of Salp15488 binding to HeLa-CD4 cells; conditions: Salp15 or lysozyme 0.5 mg/mL
# T1 construct: host or cells: HeLa
# Description: For colocalization experiments, Jurkat and CD4^+ T cells were cytospun as described herein. HeLa and HeLa-CD4 cells were grown on chamber slides. The cells were fixed and stained with anti-CD4 and Salp15 as follows. Purified Salp15 was labeled using Alexa-488 with the Protein Labeling Kit (Molecular Probes) according to the manufacturer's instructions. Fixed cells were blocked with 5% normal serum and anti-CD16/CD32 (1:100) in PBS, incubated with 1 μg of monoclonal biotinylated anti-CD4 (L3T4) (BD Biosciences Pharmingen) followed by streptavidin594 staining. The cells were then stained with 20 μg/mL of Salp15488. For competition assays, cells were first blocked with 5% normal serum, incubated with either polyclonal anti-CD4 antibody, MT310, OKT4, normal rabbit IgG, Salp15 (0.5 mg/mL) or lysozyme (0.5 mg/mL) followed by staining with Salp15488. All samples were mounted in a GVA Mount (Zymed, San Francisco, Calif., U.S.A.) and visualized with an Olympus Confocal microscope equipped with Fluoview 3.0 software.
# mouse CD4+ T lymphocytes = assay: TCR ligation-induced protein tyrosine phosphorylation in anti-CD3/CD28 stimulated CD4+ T cells (immunoblotting, confocal microscopy); assay type: cell-based
# Description: Naïve CD4+ T cells from C3H/HeN, Balb/c, and B10.BR mice were purified as previously described (Anguita et al., 2002). CD4+ T cells were preincubated in Click's modified Bruff's Medium (Sigma Chemical Co., St. Louis, Mo., U.S.A.) for 10 minutes at 37° C. with and without Salp15 (50 μg/mL) and stimulated for 20 min or the indicated times at 37° C. with 10 μg/mL of anti-CD3ε, 1 μg/mL of anti-CD28, and 10 μg/mL of anti-armenian and syrian hamster IgG (BD Biosciences Pharmingen, San Jose, Calif., U.S.A.). Jurkat (E6-1) cells were stimulated using 5 μg/mL of OKT3 mAb (eBioscience, San Diego, Calif., U.S.A.) and 1 μg/mL of anti-human CD28 cross linked with 5 μg/mL anti-mouse IgG for the indicated times.
# For the visualization of lipid rafts, phospho-tyrosine, and cytoskeleton reorganization, CD4^+, CD8^+ or Jurkat cells were cytospun for 10 minutes at 1000 RPM onto positively charged microslides (Fisher Scientific, Hampton, N.H., U.S.A.). The cells were fixed with 3.7% paraformaldehyde (Sigma Chemical Co.) for 15 minutes and stained with CTB594 (Molecular Probes, Eugene, Oreg., U.S.A.), AlexaFluor488 labeled phalloidin (Molecular Probes) or (1:50) biotin-conjugated anti-p-Tyr (PY99) followed by Streptavidin-AlexaFluor594 (1:100, Molecular Probes). For p-LAT and p-PLCγ1 staining, fixed cells were treated with PBS containing 0.1% Triton-X 100 and 100 mM glycine for 15 min at room temperature and stained using rabbit p-LAT (Tyr^191) or rabbit anti-p-PLCγ1 (Tyr^783) probed with anti-rabbit IgG488 (Molecular Probes).
# For tyrosine phosphorylation western analysis, cells were lysed in 60 mM Tris (pH 7.4) containing 150 mM NaCl, 5 mM EDTA, 1 mM EGTA, 1 mM β-glycerol phosphate, 2.5 mM sodium pyrophosphate, 25 mM NaF, 2 mM sodium orthovanadate, 1% Triton-X 100, 0.25% sodium deoxycholate, 1 mM PMSF and protease inhibitors for 15 min on ice, sonicated 4×5 sec and incubated at 37° C. for 10 min. The lysate was cleared by centrifugation and boiled in SDS-sample buffer. The samples were subjected to SDS-PAGE, transferred to a nitrocellulose membrane and immunoblotted with anti-pTyr, anti-pPLCγ1 and anti-Vav1, anti-pSrc family (Tyr^416) to measure p-Lck^394 (Alonso et al., 2004), anti-Lck, anti-pZap70 (Tyr^319), anti-Zap70, p44/42 and p44/42 (phopho-Tyr^204/Thr^202). Vav1 was immunoprecipitated using anti-Vav1 and protein A-agarose beads overnight, subjected to SDS-PAGE followed by immunoblotting with anti-pTyr or anti-Vav1. To examine the effect of Salp15 on T cell stimulation with INFγ, CD4^+ T cells were preincubated with Salp15 at 50 μg/mL followed by activation with 20 ng/mL of mouse recombinant INFγ (R & D Systems, Minneapolis, Minn., U.S.A.) for 30 min at 37° C. The cells were lysed as above and subjected to SDS-PAGE and immunoblotting with anti-pSTAT1 and anti-STAT1.
# Quantification of immunoblots was performed using the SCION IMAGE™ software package, Scion Corporation (Frederick, Md., U.S.A.).
# sCD4 = molecular target: T2, sCD4 (Homo sapiens, UniProt P01730); assay: Microtiter binding of sCD4-HRP to plate-bound Salp15 and synthetic peptides; conditions: plate-bound Salp15 pre-treated with 10 mM DTT
# T2 construct: the extracellular four domains of CD4 (sCD4); purchased Research Diagnostics Inc., Flanders, N.J., U.S.A
# Description: (§1) Purified sCD4 was coated overnight at 4° C. at the indicated concentrations in 0.1M sodium carbonate buffer (pH 9.5) in 96 well plates. Equimolar amounts of lysozyme were used as a non-specific control. The wells were washed, blocked with 10% FCS/PBS for 1 hr at R.T., and incubated with Salp15 (0.4 μM) for 2 hr at 37° C. Salp15 binding was detected by incubation with horseradish peroxidase (HRP)-conjugated anti-His antibody for 1 hr followed by microwell peroxidase substrate (KPL). The reaction was stopped by adding TMB stop solution (KPL). Chemically synthesized overlapping peptides of Salp15 were purchased from GenScript Corporation (Piscataway, N.J., U.S.A). To study the binding of Salp15 and peptides to sCD4, Salp15 (5 μg) and different peptides (0.5 μg) were coated. The wells were washed and blocked prior to incubation with sCD4-HRP (Research Diagnostics Inc., Flanders, N.J., U.S.A.). For competition assays, indicated concentrations of Salp15 or P11 were added to sCD4-HRP and incubated with plate bound P11 (0.1 μg). To estimate the effect of dithiothreitol (DTT) treatment of Salp15 on binding to sCD4, 0.5 μM Salp15 was treated with 10 mM DTT overnight and immobilized onto microtiter plate followed by blocking and incubation with sCD4-HRP.
# Dissociation constants were determined by non-linear curve fit. The results are expressed as the mean±S.E. of 3 to 5 individual experiments.
# sCD4 D1-D4 = molecular target: T3, sCD4 D1-D4 (Homo sapiens, UniProt P01730); assay: Microtiter binding assay with immobilized sCD4 D1-D4; conditions: Salp15 0.4 μM; similar kinetics to D1-D2
# T3 construct: a sCD4 preparation that contains all four extracellular domains (D1-D4)
# Description: as §1
# [1] = Salp15 pretreatment, quantification of the specific bands
substance,measurement,setting,value
"Salp15: secreted salivary protein from Ixodes scapularis, SEQ ID NO: 2; recombinant His-tagged, produced in Drosophila S2 cells",Competition of Salp15488 binding to HeLa-CD4 cells by preincubation,CD4 on HeLa-CD4 cells,competed
same,Reduction of PLCγ1 phosphorylation (Tyr783),"mouse CD4+ T lymphocytes; Salp15 pretreatment (50 μg/mL), anti-CD3/CD28 stimulated, compared to control treated cells",46%
same,Reduction in tyrosine phosphorylation of Vav1,"mouse CD4+ T lymphocytes; Salp15 pretreatment, Vav1 immunoprecipitation, anti-pTyr immunoblot",~58%
same,Phosphorylation level of Lat at Tyr191,"mouse CD4+ T lymphocytes; Salp15 pretreatment, immunofluorescence",reduced
same,Reduction in tyrosine phosphorylation of Lck (Tyr394),mouse CD4+ T lymphocytes; [1],about 56%
same,Reduction in tyrosine phosphorylation of Zap70 (Tyr319),mouse CD4+ T lymphocytes; [1],~67%
same,ERK activation (ERK1/2 phosphorylation),mouse CD4+ T lymphocytes; anti-CD3/CD28 stimulation,does not impair
same,Lck phosphorylation in the absence of T cell stimulation,mouse CD4+ T lymphocytes; no stimulation,did not induce
same,CD4 binding after DTT pre-treatment compared to control Salp15,sCD4,equivalent binding levels
same,Binding to sCD4 D1-D4,sCD4 D1-D4,saturable binding
